Experimental data from patent publication US7256042B2, “Process for making hepatocytes from pluripotent stem cells” (Geron Corporation, priority 2000, dated 2007).

What was measured:
[1] = system: hES cell derived embryoid bodies; assay: Comparison of potential hepatocyte differentiation agents; type: cell-based, human; details: for Induction of hepatocyte phenotype: EBs 4 days in suspension, replated on plates coated with collagenase 1, cultured with each compound for 6 days, analogs at 5 mM; for Effect on hepatocyte differentiation (in words): concentration of 5 mM; for Induction of hepatocyte phenotype: key: +: Causes hepatocyte differentiation and selective elimination of other cell types; −: No inductive effect; ±: Mild inductive effect; may allow growth or survival of other cell types
Description: (§1) The effect of sodium butyrate was compared with other potential hepatocyte differentiation agents in a similar protocol. Embryoid bodies were cultured in suspension for 4 days, and then replated on plates coated with collagenase 1. The cells were then cultured in the presence of each compound for 6 days.

hES cells = assay: Phenotype of hepatocyte lineage cells made using sodium n-butyrate or Trichostatin A; type: cell-based, human; details: 5 mM sodium n-butyrate; 100 nM Trichostatin A
Description: as §1
At 75-100 nM, Trichostatin A appeared to both induce hepatocyte differentiation and select against survival of other cell types.

Structure (SMILES) | Induction of hepatocyte phenotype [1] | Effect on hepatocyte differentiation (in words) ([1]; 6 days) | also measured
CCCCCC(=O)O [Caproic acid] | − |  | 
CC(C)C(=O)O [Isobutyric acid] | ± | effective in causing hepatocyte differentiation | 
[Cl-].[Na+] [NaCl] |  | no effect | 
CCC(=O)O [Propionic acid] |  | effective in causing hepatocyte differentiation | 
CC(/C=C/C(=O)NO)=C\[C@@H](C)C(=O)c1ccc(N(C)C)cc1 [Trichostatin A] | + |  | Concentration range found ineffective ([1]; EB-derived cells, 6 days): 10 to 50 nM; Concentration range found to be toxic to cells ([1]; EB-derived cells, 6 days): 2500 to 100000 nM; Concentration range that induces hepatocyte differentiation and selects against survival of other cell types ([1]; EB-derived cells, 6 days): 75 to 100 nM; CK18, positive cells (hES cells): >70%; CK19, positive cells (hES cells): >90%; Glycogen staining, positive cells (hES cells): >50%; albumin, positive cells (hES cells): 41%; α1-antitrypsin, positive cells (hES cells): 81%
CCCCC(=O)O [Valeric acid] | − |  | 
CCCC(=O)O [n-Butyric Acid] |  | equally effective | 
CCC(O)C(=O)O (stereo not drawn) [α-hydroxybutyric acid] | − |  | 
CC(O)CC(=O)O (stereo not drawn) [β-hydroxybutyric acid] | − |  | 
